Key:
Format in all cases: in vivo
[1] = tested on: field corn (Zea mays L., var. Dekalb 535, CORN); assay: Pre-emerge test, crop safety; settings: rated 14 days after application, 0 = no damage, 100 = complete death
Method in brief: (§1)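 Visual ratings on a 0-100 scale (0 no damage, 100 all plants dead) were taken at 14 days after treatment. Rates of 15-1000 g ai/ha in acetone, 187 l/ha, were sprayed onto soil one day after planting (pre-emerge) or onto 2-3 leaf plants with 0.25% v/v surfactant (post-emerge).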

[2] = tested on: upland rice (Oryza sp., var. Tebonnet, RICE); assay: Pre-emerge test, crop safety; settings: rated 14 days after application, 0 = no damage, 100 = complete death
Method in brief: as §1

[3] = tested on: redroot pigweed (Amaranthus retroflexus, AMARE); assay: Pre-emerge test, greenhouse herbicide activity screening; settings: rated 14 days after application, 0 = no damage, 100 = complete death
Method in brief: (§2)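 Compounds in acetone were track-sprayed at 15-1000 g ai/ha (187 l/ha) on sandy loam pots: pre-emerge one day after seeding, post-emerge at 2-3 leaf stage with 0.25% v/v non-ionic surfactant. Phytotoxicity was rated 14 days later on a 0 (no damage) to 100 (complete death) scale.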

[4] = tested on: large crabgrass (Digitaria sanguinalis, DIGSA); assay: Post-emerge test, greenhouse herbicide activity screening; settings: phytotoxicity rating 0-100 (0 no damage, 100 complete death), 14 days after application
Method in brief: as §2

[5] = tested on: barnyardgrass (Echinochloa crus-galli, ECHCG); assay: as above; settings: phytotoxicity rating 0-100 (0 no damage, 100 complete death), 14 days after application
Method in brief: as §2

[6] = tested on: sicklepod (Cassia obtusifolia, CASOB); assay: as above; settings: phytotoxicity rating 0-100 (0 no damage, 100 complete death), 14 days after application
Method in brief: as §2

[7] = tested on: lambsquarters (Chenopodium album, CHEAL); assay: as above; settings: phytotoxicity rating 0-100 (0 no damage, 100 complete death), 14 days after application
Method in brief: as §2

[8] = tested on: velvetleaf (Abutilon theophrasti, ABUTH); assay: as above; settings: phytotoxicity rating 0-100 (0 no damage, 100 complete death), 14 days after application
Method in brief: as §2

[9] = tested on: green foxtail (Setaria viridis, SETVI); assay: as above; settings: phytotoxicity rating 0-100 (0 no damage, 100 complete death), 14 days after application
Method in brief: as §2

[10] = tested on: johnsongrass (Sorghum halepense, SORHA); assay: as above; settings: phytotoxicity rating 0-100 (0 no damage, 100 complete death), 14 days after application
Method in brief: as §2

[11] = tested on: redroot pigweed (Amaranthus retroflexus, AMARE); assay: as above; settings: phytotoxicity rating 0-100 (0 no damage, 100 complete death), 14 days after application
Method in brief: as §2

[12] = tested on: ivyleaf morningglory (Ipomoea hederacea, IPOHE); assay: as above; settings: phytotoxicity rating 0-100 (0 no damage, 100 complete death), 14 days after application
Method in brief: as §2

[13] = tested on: large crabgrass (Digitaria sanguinalis, DIGSA); assay: Pre-emerge test, greenhouse herbicide activity screening; settings: rated 14 days after application, 0 = no damage, 100 = complete death
Method in brief: (§3)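 Compounds in acetone were track-sprayed at 15–1000 g ai/ha: pre-emergence onto soil sown the previous day, then top-watered to incorporate and later bottom-watered; post-emergence onto 2–3 leaf plants with 0.25% v/v surfactant, bottom-watered only. Ratings on a 0–100 phytotoxicity scale were taken at day 14.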

[14] = tested on: barnyardgrass (Echinochloa crus-galli, ECHCG); assay: as above; settings: rated 14 days after application, 0 = no damage, 100 = complete death
Method in brief: as §3

[15] = tested on: sicklepod (Cassia obtusifolia, CASOB); assay: as above; settings: rated 14 days after application, 0 = no damage, 100 = complete death
Method in brief: as §3

[16] = tested on: lambsquarters (Chenopodium album, CHEAL); assay: as above; settings: rated 14 days after application, 0 = no damage, 100 = complete death
Method in brief: as §3

[17] = tested on: velvetleaf (Abutilon theophrasti, ABUTH); assay: as above; settings: rated 14 days after application, 0 = no damage, 100 = complete death
Method in brief: as §3

[18] = tested on: green foxtail (Setaria viridis, SETVI); assay: as above; settings: rated 14 days after application, 0 = no damage, 100 = complete death
Method in brief: as §3

[19] = tested on: johnsongrass (Sorghum halepense, SORHA); assay: as above; settings: rated 14 days after application, 0 = no damage, 100 = complete death
Method in brief: as §3

[20] = tested on: ivyleaf morningglory (Ipomoea hederacea, IPOHE); assay: as above; settings: rated 14 days after application, 0 = no damage, 100 = complete death
Method in brief: as §3

[21] = tested on: field corn (Zea mays L., var. Dekalb 535, CORN); assay: Post-emerge test, crop safety; settings: phytotoxicity rating 0-100 (0 no damage, 100 complete death), 14 days after application
Method in brief: (§4)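 Rating: 0–100 visual injury, 14 DAA. Application: acetone, 187 l/ha, 15–1000 g ai/ha, flat-fan track sprayer with nozzle 40–45 cm above soil or canopy. Post-emerge runs used 0.25% v/v surfactant on 2–3 leaf plants.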

[22] = tested on: upland rice (Oryza sp., var. Tebonnet, RICE); assay: Post-emerge test, crop safety; settings: phytotoxicity rating 0-100 (0 no damage, 100 complete death), 14 days after application
Method in brief: as §4

COc1c(Cl)cc(F)c(-n2c(=O)cc(C(F)(F)F)n(C)c2=O)c1N(C(=O)C1CC1)C(=O)C1CC1 [2-18]
Pre-emerge crop damage CORN (phytotoxicity rating, scale 0-100) ([1]; 63 g ai/ha): 0 | Pre-emerge crop damage CORN (phytotoxicity rating, scale 0-100) ([1]; 250 g ai/ha): 0 | Pre-emerge crop damage RICE (phytotoxicity rating, scale 0-100) ([2]; 63 g ai/ha): 0 | Pre-emerge crop damage RICE (phytotoxicity rating, scale 0-100) ([2]; 250 g ai/ha): 20 | Pre-emerge Herbicidal Activity AMARE (phytotoxicity rating, scale 0-100) ([3]; 63 g ai/ha): 40 | Pre-emerge Herbicidal Activity AMARE (phytotoxicity rating, scale 0-100) ([3]; 250 g ai/ha): 100 | Post-emerge Herbicidal Activity DIGSA ([4]; 63 g ai/ha): 0 | Post-emerge Herbicidal Activity DIGSA ([4]; 250 g ai/ha): 0 | Post-emerge Herbicidal Activity ECHCG ([5]; 63 g ai/ha): 0 | Post-emerge Herbicidal Activity ECHCG ([5]; 250 g ai/ha): 0 | Post-emerge Herbicidal Activity CASOB ([6]; 63 g ai/ha): 0 | Post-emerge Herbicidal Activity CASOB ([6]; 250 g ai/ha): 10 | Post-emerge Herbicidal Activity CHEAL ([7]; 63 g ai/ha): 0 | Post-emerge Herbicidal Activity CHEAL ([7]; 250 g ai/ha): 50 | Post-emerge Herbicidal Activity ABUTH ([8]; 63 g ai/ha): 0 | Post-emerge Herbicidal Activity ABUTH ([8]; 250 g ai/ha): 40 | Post-emerge Herbicidal Activity SETVI ([9]; 63 g ai/ha): 0 | Post-emerge Herbicidal Activity SETVI ([9]; 250 g ai/ha): 0 | Post-emerge Herbicidal Activity SORHA ([10]; 63 g ai/ha): 0 | Post-emerge Herbicidal Activity SORHA ([10]; 250 g ai/ha): 0 | Post-emerge Herbicidal Activity AMARE ([11]; 63 g ai/ha): 0 | Post-emerge Herbicidal Activity AMARE ([11]; 250 g ai/ha): 95 | Post-emerge Herbicidal Activity IPOHE ([12]; 63 g ai/ha): 0 | Post-emerge Herbicidal Activity IPOHE ([12]; 250 g ai/ha): 30 | Pre-emerge Herbicidal Activity DIGSA (phytotoxicity rating, scale 0-100) ([13]; 63 g ai/ha): 0 | Pre-emerge Herbicidal Activity DIGSA (phytotoxicity rating, scale 0-100) ([13]; 250 g ai/ha): 0 | Pre-emerge Herbicidal Activity ECHCG (phytotoxicity rating, scale 0-100) ([14]; 63 g ai/ha): 0 | Pre-emerge Herbicidal Activity ECHCG (phytotoxicity rating, scale 0-100) ([14]; 250 g ai/ha): 0 | Pre-emerge Herbicidal Activity CASOB (phytotoxicity rating, scale 0-100) ([15]; 63 g ai/ha): 0 | Pre-emerge Herbicidal Activity CASOB (phytotoxicity rating, scale 0-100) ([15]; 250 g ai/ha): 40 | Pre-emerge Herbicidal Activity CHEAL (phytotoxicity rating, scale 0-100) ([16]; 63 g ai/ha): 10 | Pre-emerge Herbicidal Activity CHEAL (phytotoxicity rating, scale 0-100) ([16]; 250 g ai/ha): 90 | Pre-emerge Herbicidal Activity ABUTH (phytotoxicity rating, scale 0-100) ([17]; 63 g ai/ha): 0 | Pre-emerge Herbicidal Activity ABUTH (phytotoxicity rating, scale 0-100) ([17]; 250 g ai/ha): 100 | Pre-emerge Herbicidal Activity SETVI (phytotoxicity rating, scale 0-100) ([18]; 63 g ai/ha): 0 | Pre-emerge Herbicidal Activity SETVI (phytotoxicity rating, scale 0-100) ([18]; 250 g ai/ha): 80 | Pre-emerge Herbicidal Activity SORHA (phytotoxicity rating, scale 0-100) ([19]; 63 g ai/ha): 0 | Pre-emerge Herbicidal Activity SORHA (phytotoxicity rating, scale 0-100) ([19]; 250 g ai/ha): 0 | Pre-emerge Herbicidal Activity IPOHE (phytotoxicity rating, scale 0-100) ([20]; 63 g ai/ha): 0 | Pre-emerge Herbicidal Activity IPOHE (phytotoxicity rating, scale 0-100) ([20]; 250 g ai/ha): 40 | Post-emerge Herbicidal Activity CORN (crop damage) ([21]; 63 g ai/ha): 0 | Post-emerge Herbicidal Activity CORN (crop damage) ([21]; 250 g ai/ha): 0 | Post-emerge Herbicidal Activity RICE (crop damage) ([22]; 63 g ai/ha): 0 | Post-emerge Herbicidal Activity RICE (crop damage) ([22]; 250 g ai/ha): 0

COc1c(Cl)cc(F)c(-n2c(=O)cc(C(F)(F)F)n(C)c2=O)c1NC(=O)c1ccc(C)c(C)c1 [2-32]
Pre-emerge phytotoxicity rating (0-100), crop damage, CORN ([1]; 63 g ai/ha): 40 | Pre-emerge phytotoxicity rating (0-100), crop damage, CORN ([1]; 250 g ai/ha): 95 | Pre-emerge phytotoxicity rating (0-100), crop damage, RICE ([2]; 63 g ai/ha): 80 | Pre-emerge phytotoxicity rating (0-100), crop damage, RICE ([2]; 250 g ai/ha): 99 | Pre-emerge Herbicidal Activity, phytotoxicity rating (0-100), AMARE ([3]; 63 g ai/ha): 100 | Pre-emerge Herbicidal Activity, phytotoxicity rating (0-100), AMARE ([3]; 250 g ai/ha): 100 | Post-emerge Herbicidal Activity DIGSA ([4]; 63 g ai/ha): 0 | Post-emerge Herbicidal Activity DIGSA ([4]; 250 g ai/ha): 70 | Post-emerge Herbicidal Activity ECHCG ([5]; 63 g ai/ha): 0 | Post-emerge Herbicidal Activity ECHCG ([5]; 250 g ai/ha): 90 | Post-emerge Herbicidal Activity CASOB ([6]; 63 g ai/ha): 80 | Post-emerge Herbicidal Activity CASOB ([6]; 250 g ai/ha): 100 | Post-emerge Herbicidal Activity CHEAL ([7]; 63 g ai/ha): 95 | Post-emerge Herbicidal Activity CHEAL ([7]; 250 g ai/ha): 100 | Post-emerge Herbicidal Activity ABUTH ([8]; 63 g ai/ha): 100 | Post-emerge Herbicidal Activity ABUTH ([8]; 250 g ai/ha): 100 | Post-emerge Herbicidal Activity SETVI ([9]; 63 g ai/ha): 0 | Post-emerge Herbicidal Activity SETVI ([9]; 250 g ai/ha): 90 | Post-emerge Herbicidal Activity SORHA ([10]; 63 g ai/ha): 50 | Post-emerge Herbicidal Activity SORHA ([10]; 250 g ai/ha): 95 | Post-emerge Herbicidal Activity AMARE ([11]; 63 g ai/ha): 100 | Post-emerge Herbicidal Activity AMARE ([11]; 250 g ai/ha): 100 | Post-emerge Herbicidal Activity IPOHE ([12]; 63 g ai/ha): 100 | Post-emerge Herbicidal Activity IPOHE ([12]; 250 g ai/ha): 100 | Pre-emerge Herbicidal Activity, phytotoxicity rating (0-100), DIGSA ([13]; 63 g ai/ha): 100 | Pre-emerge Herbicidal Activity, phytotoxicity rating (0-100), DIGSA ([13]; 250 g ai/ha): 100 | Pre-emerge Herbicidal Activity, phytotoxicity rating (0-100), ECHCG ([14]; 63 g ai/ha): 99 | Pre-emerge Herbicidal Activity, phytotoxicity rating (0-100), ECHCG ([14]; 250 g ai/ha): 100 | Pre-emerge Herbicidal Activity, phytotoxicity rating (0-100), CASOB ([15]; 63 g ai/ha): 95 | Pre-emerge Herbicidal Activity, phytotoxicity rating (0-100), CASOB ([15]; 250 g ai/ha): 100 | Pre-emerge Herbicidal Activity, phytotoxicity rating (0-100), CHEAL ([16]; 63 g ai/ha): 100 | Pre-emerge Herbicidal Activity, phytotoxicity rating (0-100), CHEAL ([16]; 250 g ai/ha): 100 | Pre-emerge Herbicidal Activity, phytotoxicity rating (0-100), ABUTH ([17]; 63 g ai/ha): 100 | Pre-emerge Herbicidal Activity, phytotoxicity rating (0-100), ABUTH ([17]; 250 g ai/ha): 100 | Pre-emerge Herbicidal Activity, phytotoxicity rating (0-100), SETVI ([18]; 63 g ai/ha): 100 | Pre-emerge Herbicidal Activity, phytotoxicity rating (0-100), SETVI ([18]; 250 g ai/ha): 100 | Pre-emerge Herbicidal Activity, phytotoxicity rating (0-100), SORHA ([19]; 63 g ai/ha): 90 | Pre-emerge Herbicidal Activity, phytotoxicity rating (0-100), SORHA ([19]; 250 g ai/ha): 100 | Pre-emerge Herbicidal Activity, phytotoxicity rating (0-100), IPOHE ([20]; 63 g ai/ha): 100 | Pre-emerge Herbicidal Activity, phytotoxicity rating (0-100), IPOHE ([20]; 250 g ai/ha): 100 | Post-emerge Herbicidal Activity CORN (crop damage) ([21]; 63 g ai/ha): 30 | Post-emerge Herbicidal Activity CORN (crop damage) ([21]; 250 g ai/ha): 95 | Post-emerge Herbicidal Activity RICE (crop damage) ([22]; 63 g ai/ha): 30 | Post-emerge Herbicidal Activity RICE (crop damage) ([22]; 250 g ai/ha): 80

— patent publication US6355799B1, “Substituted benzene compounds, process for their preparation, and herbicidal and defoliant compositions containing them” (ISK Americas Incorporated, priority 1997, dated 2002)
